# ChEMBL document CHEMBL4732170, “Discovery of Small-Molecule Antagonists of the PWWP Domain of NSD2” (J Med Chem, 2021)
# Activity calls are given as the source filed them. The rule behind the calls is not given here.
# Molecular target: T1, Peregrin (Homo sapiens) (UniProt P55201)
# T1 sequence (whole entry): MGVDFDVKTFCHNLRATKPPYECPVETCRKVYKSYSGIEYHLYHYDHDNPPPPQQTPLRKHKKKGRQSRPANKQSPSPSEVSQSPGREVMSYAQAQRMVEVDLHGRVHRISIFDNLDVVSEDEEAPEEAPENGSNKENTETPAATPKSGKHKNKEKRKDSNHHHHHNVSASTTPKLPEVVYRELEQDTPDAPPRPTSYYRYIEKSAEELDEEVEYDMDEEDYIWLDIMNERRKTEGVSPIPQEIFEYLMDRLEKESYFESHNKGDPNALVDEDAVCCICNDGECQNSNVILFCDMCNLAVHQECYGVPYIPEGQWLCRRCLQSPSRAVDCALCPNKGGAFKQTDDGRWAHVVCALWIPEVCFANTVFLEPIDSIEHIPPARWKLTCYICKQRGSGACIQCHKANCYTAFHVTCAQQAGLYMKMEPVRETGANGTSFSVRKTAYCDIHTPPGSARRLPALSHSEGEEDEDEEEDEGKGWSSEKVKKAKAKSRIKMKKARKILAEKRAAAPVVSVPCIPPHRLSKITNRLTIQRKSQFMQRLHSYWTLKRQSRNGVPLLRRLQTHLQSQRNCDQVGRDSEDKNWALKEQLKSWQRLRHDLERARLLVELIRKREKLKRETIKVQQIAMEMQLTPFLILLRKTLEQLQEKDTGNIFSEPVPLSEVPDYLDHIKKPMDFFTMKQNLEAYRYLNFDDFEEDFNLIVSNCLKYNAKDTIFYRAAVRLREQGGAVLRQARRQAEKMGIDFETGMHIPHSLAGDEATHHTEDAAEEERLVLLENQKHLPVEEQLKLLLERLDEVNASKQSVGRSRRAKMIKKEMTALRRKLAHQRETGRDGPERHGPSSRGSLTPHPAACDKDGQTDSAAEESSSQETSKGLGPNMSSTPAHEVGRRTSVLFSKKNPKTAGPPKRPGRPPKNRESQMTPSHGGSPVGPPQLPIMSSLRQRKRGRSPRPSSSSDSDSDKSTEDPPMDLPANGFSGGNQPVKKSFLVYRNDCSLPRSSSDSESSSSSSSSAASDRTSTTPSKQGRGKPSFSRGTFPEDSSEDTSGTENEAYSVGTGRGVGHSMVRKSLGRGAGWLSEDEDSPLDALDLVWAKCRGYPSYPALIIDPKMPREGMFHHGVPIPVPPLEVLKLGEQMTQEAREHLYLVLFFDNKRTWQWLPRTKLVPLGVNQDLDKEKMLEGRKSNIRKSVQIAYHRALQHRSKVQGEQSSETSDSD
# Assay: Binding affinity to BRPF1 PWWP domain (unknown origin) assessed as aggregation temperature at 400 uM by heating at 25 to 85 degC by differential static light scattering method
structure (smiles),measurement,value
N#Cc1ccc(C(C(N)=O)N2CCC2c2ccc(Cl)cc2)cc1 (stereo unspecified),Activity,inactive
